According to US4008331A, “Antidepressant 1,1a,6,10b-tetrahydrodibenzo-[a,e]-cyclopropa-[c]-cyclohepten-6-substitu ted oximes” (E. I. Du Pont de Nemours and Company, priority 1976, dated 1977):
Structures can show the parent of a compound that is named as a salt. Where two headings read alike, the source gives them in different places.

Experiments:
[1] = tested on: tetrabenazine-induced depression in mice; test: Antagonism of tetrabenazine-induced sedation and depression in mice, orally at 1 hour post-drug; type: in vivo, Carworth CF1 S female mice; conditions: for ED50: Mus musculus, po, 1 h
Method: Relief from ptosis was recorded when exactly 2 seconds after placing the mouse facing the observer, lid closure was less than 50% in both eyes.

[2] = Hydrolytic stability in 0.5M hydrochloric acid at 25° for 20 hrs (NMR of residue); type: physicochemical
Method: For example, a solution of 0.6 g of N-(2-methylaminoethyl)-1,1a,6,10b-tetrahydrodibenzo[a,e]cyclopropa[c]cyclohepten-6-imine in 20 ml of 0.5M hydrochloric acid was stirred at 25° for 20 hrs. The solution was cooled and 10 ml of 10% sodium hydroxide solution was added, and the oil was twice extracted with a solution of 25% methylene chloride in ether. The combined organic extracts were thoroughly washed with saturated brine, dried and solvent removed. The NMR spectrum of the residue (0.5 g) indicated about 40% decomposition of the imine to the ketone occurred.
This stability to hydrolysis is advantageous in preparation, storage, and use of pharmaceutical dosage forms.

[3] = mice, oral, 1 hour post-drug, tetrabenazine 32 mg/kg intraperitoneally 30 minutes after compound, 60 min
[4] = mice, oral, 1 hour post-drug, tetrabenazine 32 mg/kg intraperitoneally 30 minutes after compound, read-out: ED50 for prevention of exploratory loss
[5] = mice, oral, 1 hour post-drug, tetrabenazine 32 mg/kg intraperitoneally 30 minutes after compound, read-out: ED50 for prevention of ptosis
[6] = mice, oral, 1 hour post-drug, tetrabenazine 32 mg/kg intraperitoneally 30 minutes after compound, hydrochloride, 60 min

Structure (SMILES) | ED50 [1, 4] | ED50 [1, 5] | further results
NCCON=C1c2ccccc2C2CC2c2ccccc21 (centres unmarked) [H CH2 CH2 NH2, 1,1a,6,10b-Tetrahydrodibenzo[a,e]cyclopropa[c]cyclohepten-6-one 0-(2-aminoethyl)oxime] | – | – | ED50 for prevention of ptosis ([1]; mice, oral, 1 hour post-drug, tetrabenazine 32 mg/kg intraperitoneally 30 minutes after compound): 0.09 mg/kg; ED50 for prevention of exploratory loss [1, 3]: 0.25 mg/kg
CN(C)CCON=C1c2ccccc2C2CC2c2ccccc21 (centres unmarked) [H CH2 CH2 N(CH3)2, 1,1a,6,10b-Tetrahydrodibenzo[a,e]cyclopropa[c]cyclohepten-6-one 0-[2-(dimethylamino)ethyl]oxime] | 2.3 mg/kg | 0.4 mg/kg | –
c1ccc2c(c1)C(=NOCCN1CCCC1)c1ccccc1C1CC21 (centres unmarked) | 10.4 mg/kg | 4.8 mg/kg | –
CN(C)CCCN1c2ccccc2CCc2ccccc21 [imipramine, reference compound] | – | – | ED50 ([1]; read-out: ED50 for prevention of exploratory loss): 3 mg/kg; ED50 ([1]; read-out: ED50 for prevention of ptosis): 2.5 mg/kg
CNCCON=C1c2ccccc2C2CC2c2ccccc21 (centres unmarked) [H CH2 CH2 NHCH3, 1,1a,6,10b-Tetrahydrodibenzo[a,e]cyclopropa[c]cyclohepten-6-one 0-[2-(methylamino)ethyl]oxime] | 1.9 mg/kg | 0.33 mg/kg | decomposition (in words) ([2]; same procedure: 0.5M hydrochloric acid): no detectable decomposition
CN(C)CCCON=C1c2ccccc2C2CC2c2ccccc21 (centres unmarked) [H CH2 CH2 CH2 N(CH3)2, 1,1a,6,10b-Tetrahydrodibenzo[a,e]cyclopropa[c]cyclohepten-6-one 0-[3-(dimethylamino)propyl]oxime] | 15.6 mg/kg | 9 mg/kg | –
NCCON=C1c2ccccc2C2CC2c2ccccc21 (centres unmarked) [H CH2 CH2 NH2 . HCl] | – | 0.09 mg/kg | ED50 for prevention of exploratory loss [1, 3]: 0.10 mg/kg
c1ccc2c(c1)C(=NOCCN1CCOCC1)c1ccccc1C1CC21 (centres unmarked) | 3 mg/kg | 1 mg/kg | –
CN(C)CCON=C1c2ccccc2C2CC2c2ccccc21 (centres unmarked) [H CH2 CH2 N(CH3)2 . HCl, 1,1a,6,10b-Tetrahydrodibenzo[a,e]cyclopropa[c]cyclohepten-6-one 0-[2-(dimethylamino)ethyl]oxime hydrochloride] | – | – | ED50 for prevention of exploratory loss [1, 6]: 1.4 mg/kg; ED50 for prevention of ptosis [1, 6]: 0.5 mg/kg
CN(C)CCC=C1c2ccccc2CCc2ccccc21 [amitriptyline, reference compound] | 4.7 mg/kg | 1.7 mg/kg | –
CNCCN=C1c2ccccc2C2CC2c2ccccc21 (centres unmarked) [N-(2-methylaminoethyl)-1,1a,6,10b-tetrahydrodibenzo[a,e]cyclopropa[c]cyclohepten-6-imine, reference compound] | – | – | degraded at 20 h ([2]; 0.5 m hcl, 0.6 g in 20 ml of 0.5M hydrochloric acid, by NMR, read-out: decomposition of the imine to the ketone): ~40%
CC(C)N(CCON=C1c2ccccc2C2CC2c2ccccc21)C(C)C (centres unmarked) [H CH2 CH2 N[CH(CH3)2]2, 1,1a,6,10b-Tetrahydrodibenzo[a,e]cyclopropa[c]cyclohepten-6-one 0-[2-(diisopropylamino)ethyl]oxime] | 5.2 mg/kg | 3.3 mg/kg | –
c1ccc2c(c1)C(=NOCCN1CCCCC1)c1ccccc1C1CC21 (centres unmarked) | 4.7 mg/kg | 1.7 mg/kg | –
